In one test the target is T1, p110α (Homo sapiens, UniProt P42336).
T1 construct: purchased Upstate Millipore
Kind of test: p110α radioactive lipid kinase assay (PI3Kα). The format is biochemical. The conditions noted are these: 25 μM ATP, 2 h at RT, read-out: IC50 in μM (PI3 kinase activity). The method, then: Protocol for Kinase Assay (PI3Kα)
p110α Radioactive Lipid Kinase Assay
The assay was designed as in the reference, Journal of Biomolecular Screening, 2002, Vol. 7, No. 5, 441-450, the disclosure of which is incorporated by reference for the teaching of the assay.
The p110α biochemical assay was performed using a radioactive assay measuring the incorporation of ^32P into the p110α substrate, phosphatidylinsoitol (PI). For the generation of IC50 curves, the reaction was performed in a 96-well MaxiSorp plates. Plates were pre-coated with 4 μg/well of a 1:1 ratio of phosphatidylinositol (PI: Avanti #840042C) and phosphatidylserine (PS: Avanti #840032C) diluted in CHCl3. Equal amount of p110α (Upstate Millipore) protein was added to each well, containing reaction buffer (50 mM MOPSO pH7.0, 100 mM NaCl, 4 mM MgCl2, 0.1% (w/v) BSA) whereas, for negative control, only reaction buffer was added. Test compounds (referred to by example nos. in the following table 1) dissolved in DMSO were treated at nine-point dose responses. Reactions were initiated by the addition of 25 μM ATP solution containing 50 μCi/ml [γ-^32P]-ATP and incubated at RT for 2 h with gentle shaking. Reactions were finally terminated by the addition of 50 mM EDTA stock solution. Plates were washed 3 times with TBS buffer. The plates were air dried, Microscint 0 (Perkin Elmer) was added to each well and the plates were sealed. The radioactivity incorporated into the immobilized PI substrate was determined with Top Count (Perkin Elmer). Inhibition was calculated using the following equation: % inhibition=(Dcpm−Tcpm)/(Dcpm)×100 • Tcpm=^32P-cpm in presence of test compounds • Dcpm=^32P-cpm in DMSO control (enzyme control deducted) Results: IC50 values of test compounds for PI3 kinase activity is indicated in Table 1.

Test [1] has as its system A2780 (ovarian cell line). Kind of test: Cytotoxicity assay (propidium iodide assay), A2780. The format is cell-based. As to conditions: Homo sapiens, A2780 cells, 48 h treatment. Summed up:
(§1)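 A2780 and PC3 cells, 3000/well, were treated with compound for 48 h after 18-24 h attachment. After washing, propidium iodide 7 μg/ml was added, followed by freeze-thaw at −70 °C and a fluorescence read. Viability was taken relative to untreated wells, with IC50 derived from the curves.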

Another test relates to PC3 (prostate cell line). Kind of test: Cytotoxicity assay (propidium iodide assay), PC3. As to conditions: Homo sapiens, PC-3, PC3 cells, 48 h treatment. The format is cell-based. Summed up: as §1

The values below come from patent US9062046B2, “Substituted imidazoquinoline derivatives as kinase inhibitors” (Piramal Enterprises Limited, priority 2011, dated 2015).

SMILES strings stand for the structures.

The term IC50 denotes the concentration that inhibits the measured activity by half. A word on the inhibition: it is the relative decrease from the control value, in per cent. Low readings indicate little suppression, high ones strong suppression.

T1 sequence (P42336 whole entry, species assumed): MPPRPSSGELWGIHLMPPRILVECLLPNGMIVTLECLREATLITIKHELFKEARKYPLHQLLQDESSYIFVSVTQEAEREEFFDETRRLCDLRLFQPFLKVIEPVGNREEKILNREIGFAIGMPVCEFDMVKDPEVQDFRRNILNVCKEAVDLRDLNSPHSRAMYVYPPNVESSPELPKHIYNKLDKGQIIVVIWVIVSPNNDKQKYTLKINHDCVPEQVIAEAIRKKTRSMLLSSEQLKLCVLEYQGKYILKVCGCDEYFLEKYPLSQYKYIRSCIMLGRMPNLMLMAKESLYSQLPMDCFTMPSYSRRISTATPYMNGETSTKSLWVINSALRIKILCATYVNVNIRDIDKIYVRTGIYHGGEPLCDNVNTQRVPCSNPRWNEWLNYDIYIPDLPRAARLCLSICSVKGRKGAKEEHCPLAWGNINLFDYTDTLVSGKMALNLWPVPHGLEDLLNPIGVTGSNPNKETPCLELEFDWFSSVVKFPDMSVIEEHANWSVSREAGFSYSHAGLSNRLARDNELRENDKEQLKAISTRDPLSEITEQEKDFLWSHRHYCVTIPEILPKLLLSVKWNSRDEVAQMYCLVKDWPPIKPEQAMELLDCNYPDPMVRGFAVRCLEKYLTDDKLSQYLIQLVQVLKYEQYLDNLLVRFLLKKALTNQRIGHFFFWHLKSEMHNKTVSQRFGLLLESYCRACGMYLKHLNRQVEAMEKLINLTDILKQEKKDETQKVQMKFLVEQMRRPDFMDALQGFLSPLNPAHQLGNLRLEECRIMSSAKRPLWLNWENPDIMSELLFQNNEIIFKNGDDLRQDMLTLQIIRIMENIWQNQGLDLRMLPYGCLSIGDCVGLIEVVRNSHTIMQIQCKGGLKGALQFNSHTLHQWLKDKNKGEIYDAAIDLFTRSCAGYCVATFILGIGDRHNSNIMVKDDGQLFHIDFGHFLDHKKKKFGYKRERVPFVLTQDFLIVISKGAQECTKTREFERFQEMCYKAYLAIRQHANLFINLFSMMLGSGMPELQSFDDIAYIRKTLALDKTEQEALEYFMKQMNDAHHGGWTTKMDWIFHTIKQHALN
T1 sequence (P27986 whole entry partner, species assumed): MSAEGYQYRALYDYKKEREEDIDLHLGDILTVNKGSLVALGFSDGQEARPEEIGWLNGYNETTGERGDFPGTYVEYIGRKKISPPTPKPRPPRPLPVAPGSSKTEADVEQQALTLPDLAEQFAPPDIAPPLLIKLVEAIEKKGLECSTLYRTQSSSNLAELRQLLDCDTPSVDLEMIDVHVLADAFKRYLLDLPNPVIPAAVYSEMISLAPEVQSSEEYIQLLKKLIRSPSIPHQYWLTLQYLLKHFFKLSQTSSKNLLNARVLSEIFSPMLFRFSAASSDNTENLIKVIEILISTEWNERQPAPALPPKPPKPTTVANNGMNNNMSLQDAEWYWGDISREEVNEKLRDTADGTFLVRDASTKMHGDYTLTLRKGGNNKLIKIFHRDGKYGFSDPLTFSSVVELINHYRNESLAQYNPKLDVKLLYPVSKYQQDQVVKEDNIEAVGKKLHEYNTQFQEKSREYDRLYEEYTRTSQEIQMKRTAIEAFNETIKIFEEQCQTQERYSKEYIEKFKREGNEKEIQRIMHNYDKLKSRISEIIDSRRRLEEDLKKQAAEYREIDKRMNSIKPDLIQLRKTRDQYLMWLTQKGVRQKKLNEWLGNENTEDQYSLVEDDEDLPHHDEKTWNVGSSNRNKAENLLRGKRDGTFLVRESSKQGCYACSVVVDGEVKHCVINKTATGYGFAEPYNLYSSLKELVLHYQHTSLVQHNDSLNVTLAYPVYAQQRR

As for `Cc1cc(-c2ccc3ncc4c(c3c2)n(-c2ccc(C(C)(C)C#N)nc2)c(=NC#N)n4C)cnc1F` [Example 78, N-(1-(6-(2-cyanopropan-2-yl)pyridin-3-yl)-8-(6-fluoro-5-methylpyridin-3-yl)-3-methyl-1H-imidazo[4,5-c]quinolin-2(3H)-ylidene)cyanamide], the figures for the IC50 (on p110α; in test [1]; in the test on PC3 (prostate cell line)) were 0.01 to 1 µM, not above 0.5 µM and not above 0.5 µM, respectively.
Turning to `Cn1c(=NC#N)n(-c2ccc(C(C)(C)C#N)nc2)c2c3cc(-c4cncc(C(F)(F)F)c4)ccc3ncc21` [Example 70], the results for the IC50 (at p110α; in test [1]; with PC3 (prostate cell line)) were not above 0.01 µM, not above 0.5 µM and not above 0.5 µM, respectively.
In the case of `Cn1c(=NC#N)n(-c2ccc(C(C)(C)C#N)nc2)c2c3cc(-c4cnc(N)c(C(F)(F)F)c4)ccc3ncc21` [Example 5, N-(8-(6-amino-5-(trifluoromethyl)pyridin-3-yl)-1-(6-(2-cyanopropan-2-yl)pyridin-3-yl)-3-methyl-1H-imidazo[4,5-c]quinolin-2(3H)-ylidene)cyanamide], the values for the IC50 (on p110α; in test [1]; with PC3 (prostate cell line)) were not above 0.01 µM, not above 0.5 µM and not above 0.5 µM, respectively.
Take `Cn1c(=NC#N)n(-c2ccc(C(C)(C)C#N)nc2)c2c3cc(-c4ccc5cc[nH]c5c4)ccc3ncc21` [Example 79, N-(1-(6-(2-cyanopropan-2-yl)pyridin-3-yl)-8-(1H-indol-6-yl)-3-methyl-1H-imidazo[4,5-c]quinolin-2(3H)-ylidene)cyanamide]: the IC50 on p110α was not above 0.01 µM; in test [1], not above 0.5 µM; in the test with PC3 (prostate cell line), not above 0.5 µM.
Take `Cn1c(=NC#N)n(-c2ccc(C(C)(C)C#N)nc2)c2c3cc(-c4ccc(N5CCCCC5)nc4)ccc3ncc21` [Example 76, N-(1-(6-(2-cyanopropan-2-yl)pyridin-3-yl)-3-methyl-8-(6-(piperidin-1-yl)pyridin-3-yl)-1H-imidazo[4,5-c]quinolin-2(3H)-ylidene)cyanamide]: the IC50 on p110α was 0.01 to 1 µM; in test [1] it was not above 0.5 µM; in the test on PC3 (prostate cell line), 0.5 to 2 µM.
The like results for `Cn1c(=NC#N)n(-c2ccc(C(C)(C)C#N)nc2)c2c3cc(-c4ccc5[nH]ccc5c4)ccc3ncc21` [Example 73, N-(1-(6-(2-cyanopropan-2-yl)pyridin-3-yl)-8-(1H-indol-5-yl)-3-methyl-1H-imidazo[4,5-c]quinolin-2(3H)-ylidene)cyanamide] were, in that order, not above 0.01 µM, not above 0.5 µM and not above 0.5 µM.
On the same counts, the results for `COc1ncc(-c2ccc3ncc4c(c3c2)n(-c2ccc(C(C)(C)C#N)nc2)c(=NC#N)n4C)cc1N` [Example 95, N-(8-(5-amino-6-methoxypyridin-3-yl)-1-(6-(2-cyanopropan-2-yl)pyridin-3-yl)-3-methyl-1H-imidazo[4,5-c]quinolin-2(3H)-ylidene)cyanamide] are 0.01 to 1 µM, not above 0.5 µM and not above 0.5 µM.
In the case of `Cn1c(=NC#N)n(-c2ccc(C(C)(C)C#N)nc2)c2c3cc(-c4ccc5cn[nH]c5c4)ccc3ncc21` [Example 77, N-(1-(6-(2-cyanopropan-2-yl)pyridin-3-yl)-8-(1H-indazol-6-yl)-3-methyl-1H-imidazo[4,5-c]quinolin-2(3H)-ylidene)cyanamide], the IC50 on p110α is 0.01 to 1 µM; in test [1], not above 0.5 µM; in the test with PC3 (prostate cell line), not above 0.5 µM.
In the case of `Cn1c(=NC#N)n(-c2ccc(C(C)(C)C#N)nc2)c2c3cc(-c4cnc(N)nc4)ccc3ncc21` [Example 75, N-(8-(2-aminopyrimidin-5-yl)-1-(6-(2-cyanopropan-2-yl)pyridin-3-yl)-3-methyl-1H-imidazo[4,5-c]quinolin-2(3H)-ylidene)cyanamide], the IC50 on p110α is 0.01 to 1 µM; in test [1] it was not above 0.5 µM; with PC3 (prostate cell line) it was not above 0.5 µM.
As for `CCn1c(=NC#N)n(-c2ccc(C(C)(C)C#N)cc2)c2c3cc(-c4cccnc4)ccc3ncc21` [Example 86, N-(1-(4-(2-cyanopropan-2-yl)phenyl)-3-ethyl-8-(pyridin-3-yl)-1H-imidazo[4,5-c]quinolin-2(3H)-ylidene)cyanamide], the inhibition at 1 µM in test [1] is not below 70%; with PC3 (prostate cell line) it was 30 to 70%.
For `COc1ncc(-c2ccc3ncc4c(c3c2)n(-c2ccc(C(C)(C)C#N)nc2)c(=NC#N)n4C)cc1NS(=O)(=O)c1ccccc1` [Example 125, N-(5-(2-(cyanoimino)-1-(6-(2-cyanopropan-2-yl)pyridin-3-yl)-3-methyl-2,3-dihydro-1H-imidazo[4,5-c]quinolin-8-yl)-2-methoxypyridin-3-yl)benzenesulfonamide], the IC50 is not above 0.01 µM on p110α, not above 0.5 µM in test [1] and not above 0.5 µM in the test with PC3 (prostate cell line).
In the case of `Cn1c(=NC#N)n(-c2ccc(C(C)(C)C#N)nc2)c2c3cc(-c4ccc(C(F)(F)F)cc4)ccc3ncc21` [Example 68, N-(1-(6-(2-cyanopropan-2-yl)pyridin-3-yl)-3-methyl-8-(4-(trifluoromethyl)phenyl)-1H-imidazo[4,5-c]quinolin-2(3H)-ylidene)cyanamide], the inhibition at 1 µM in test [1] was 30 to 70%; in the test on PC3 (prostate cell line), less than 30%.
